In the assay the test system is RR-EAE mice. Description: De novo expression of NeuN (BrdU+NeuN+ cells) in SGZ of RR-EAE mice. In kind it is in vivo. The protocol:
FIGS. 12A-12B—The effect of SM1, SM7, SM9 and SM6 on de novo expression of mature neurons marker NeuN in the SGZ. FIG. 12A: immunohistochemical images showing the labeling of BrdU^+NeuN^+ cells in the SGZ. Images were obtained using Olympus 8.1 microscope (magnification×10). FIG. 12B: Quantification of BrdU^+NeuN^+ in the SGZ. Analysis was performed using image J software on 3 sections from each mouse (3 mice from each group, total n=9). Values are given as mean±SEM and the results of Student's t-test are represented as *p<0.05.
RR-EAE induced mice were intraperitoneally injected with 250 μg/mouse (Low-L) or 500 μg/mouse (High-H) of the small molecules SM1, SM7, SM9, SM6, or the corresponding vehicle. The SMs were injected each day starting on day 9 post immunization for 30 days. For immunohistochemical analysis, 3 mice of each group were intraperitoneally injected daily with bromo-2′-deoxyuridine (BrdU) starting from day 9 post immunization for 8 following days.
In this experiment, the amount of BrdU^+NeuN^+ cells in the SGZ of mice was evaluated. FIGS. 12A-12B show immunohistochemical labeling of BrdU^+NeuN^+ cells in mice with EAE that were treated with SMs or vehicle, using Olympus 8.1 microscope (magnification×10).

[1] abbreviates: high dose (H) 500 μg/mouse i.p. daily.

`COC(=O)c1sccc1N/N=C(\C#N)S(=O)(=O)c1cccs1` [SM1, Methyl 3-[(2E)-2-[cyano(thiophen-2-ylsulfonyl)methylidene]hydrazinyl]thiophene-2-carboxylate]: under setting [1], the “BrdU+NeuN+ cells in the SGZ vs. vehicle” value is reported as “significant increased induction”.
With `CS(=O)(=O)c1noc(-c2ccc(Cl)cc2)c1C#N` [SM9, 5-(4-chlorophenyl)-3-methylsulfonyl-1,2-oxazole-4-carbonitrile], the “BrdU+NeuN+ cells in the SGZ vs. vehicle” value runs as follows: under setting [1], “trend for increased”; (low dose (L) 250 μg/mouse i.p. daily) “significant increased induction”.
